According to paper PMC5760849 (2017):

How the values were obtained:
[1] = system: (G4C2)4 RNA G-Q, dual-labelled (RNA, G4) GGGGCCGGGGCCGGGGCCGGGGCC; assay: FRET melting; conditions: Na+ (10 mM sodium cacodylate); pH 7.35; compound 2 μM; screening threshold, exact value only in figure
[2] = system: (G4C2)4 RNA (CD) (RNA, G4) GGGGCCGGGGCCGGGGCCGGGGCC; assay: CD, induced signal 350–550 nm; conditions: Na+ (10 mM sodium cacodylate); pH 7.35; RNA 1 μM; compound 2 μM

Row | ΔTm [1] | binding [2] | Structure (SMILES)
1 | > 13 °C | yes | N=C(N)c1ccc(-c2ccc(-c3ccc(-c4ccc(C(=N)N)cn4)s3)s2)nc1
2 | > 13 °C | yes | N=C(N)c1ccc(-c2ccc(-c3ccc(-c4ccc(C(=N)N)cn4)o3)o2)nc1
3 | > 13 °C | yes | N=C(N)c1ccc(-c2ccc(-c3ccc(-c4ccc(C(=N)N)cn4)[se]3)[se]2)nc1
